Tested on: human platelets
Assay: Calcium release in saponin-permeabilized human platelets (Quin2 fluorescence)
Type: cell-based
Settings: Platelet, pH 7.4, increase in Quin2-fluorescence, read-out: EC50 (effective concentration), release of Calcium
Procedure: Human platelets were purified in the presence of citrate by differential centrifugation and resuspended to ca 1×10exp9 cells/ml in Tyrode-HEPES-(N-2-hydroxyethyl-piperazine-N'-2 ethane-sulfonic acid)-buffer pH 7.4 containing 0.2% w/v Bovine Serum Albumin and 1 mM EGTA (Ethylene Glycol Bis (β-Aminoethyl Ether)N,N,N',N'-Tetraacidic acid). After 20 min, the platelets were centrifuged again (700×g, 20 min) and resuspended to the same concentration in 4 ml of "assay-buffer" containing:
1.2 mM Potassiumdihydrogenphosphate
25 mM HEPES-buffer, pH as indicated
After a further 30 min, the platelet suspension was diluted 5-fold into assay-buffer containing 2 μM Quin2 (2-[[2-[bis(carboxymethyl)amino]-5-methyl-phenoxy]methyl]-6-methoxy-8-[bis[…]]quinoline) salt as a fluorescence indicator for Calcium. To this suspension Saponin was added to a final concentration of 20 μg/ml to permeabilize the cells. The fluorescence of the suspension was continually monitored with a fluorescence spectrometer until a stable baseline was achieved. At this point, IP3 was added and the resulting release of Calcium measured as an increase in the intensity of the Quin2-fluorescence. An EC50 (effective concentration) value of 2×10exp-7M was obtained at pH 7.4. IP2-5-MP itself had no effect on release of Calcium. […]

For `O=P(O)(O)O[C@@H]1[C@H](O)[C@H](O)[C@@H](OP(=O)(O)O)[C@H](OP(=O)(O)O)[C@H]1O` [IP3, d-myo inositol(1.4.5)trisphosphate], the EC50 was 200 nM.
